Tests used:
Human HSP90 alpha = molecular target: T1, Human HSP90 alpha (Homo sapiens, UniProt P07900); experiment: Assay for the activity of inhibiting HSP90 enzyme (ATPase, malachite green); format: biochemical; conditions: purified human HSP90 alpha, 1 mM ATP added, 37° C. for two hours, OD655; read-out: Enzyme-inhibiting activity (IC50, μM) Human HSP90α
T1 construct: His tag (inferred from purification on a HisPrep FF column); made in house; host or cells: E. coli BL21 codon plus (Stratagene)
Protocol: Introduction of pETHuHSP90a into E. coli (BL21 codon plus; Stratagene) was followed by O/N incubation in the presence of 0.1 mM IPTG, and the collected E. coli cells were disrupted by ultrasonication in a Lysis buffer (50 mM Tris-HCl (pH8.0), 10 mM MgCl2, 0.1% Triton X-100, Protease inhibitor cocktail tablets (Roche Diagnostics)). The cell lysate solution was centrifuged (10,000 rpm×30 minutes), and the supernatant obtained after centrifugation was used as a crude extract. The crude extract was fractionated using HisPrep FF column and HiTrap Q column (Amersham) to prepare a purified enzyme solution.
An enzyme solution for assays was prepared by dilution of the purified enzyme solution using an assay buffer (50 mM Tris HCl pH7.6, 20 mM KCl, 5 mM MgCl2).
10 μL each of various concentrations of the test substances (10% DMSO solution) was added to each well, and for the positive control wells, 10 μL of 10% DMSO was added. 10 μL of 10% DMSO was also added to the negative control well.
10 μL of 1 mM ATP was added to all of the wells, and the reaction was carried out at 37° C. for two hours.

HCT116 cells = experiment: Measurement of cell growth inhibition (Cell Counting Kit-8, four days); conditions: Homo sapiens, HCT-116, 96 h, read-out: Cell growth-inhibiting activity (IC50, μM) Colon cancer HCT116, HCT116 colon cancer cell line, four days culture;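 also: cells exposed to a range of test concentrations at 37 °C in 5% CO2 for four days, then growth read as absorbance with Cell Counting Kit-8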
Protocol: Cells were maintained under conditions recommended by the provider of each cell line. Cells suspended in a medium were added to solutions containing various concentrations of the test substance, and the cells were cultured at 37° C. in a 5% CO2 incubator. Four days later, Cell Counting Kit-8 was added, and absorbance measurements were taken following the protocol included in the kit.

IC50 (Human HSP90 alpha): 2.7 µM
IC50 (HCT116 cells): > 10 µM
SMILES: Cc1cc(C)c2cc1C(=O)NCC[C@@H](C(=O)N1CCOCC1)NC(=O)CCSc1cc-2nc(N)n1 [Compound 70, (S)-4-amino-18,20-dimethyl-12-(morpholine-4-carbonyl)-7-thia-3,5,11,15-tetraazatricyclo[15.3.1.1^2,6]docosa-1(20),2,4,6(22),17(21),18-hexaene-10,16-dione]

— patent US8362236B2, “Macrocyclic compound” (Chugai Seiyaku Kabushiki Kaisha, priority 2007, dated 2013)
